The results in this text go back to ChEMBL document CHEMBL1154038, “Discovery of orally active, pyrrolidinone-based progesterone receptor partial agonists” (Bioorg Med Chem Lett, 2009).

Data set [1] in a line: Volume of distribution at steady state in rat at 1 mg/kg, iv or 1.3 mg/kg, po. Particulars: in vivo, read-out: Vdss. The format is ADME, organism-based.
Data set [2] is described as follows: Half life in rat at 1.3 mg/kg, po. The format is ADME, organism-based. More on the design: dose 1.3 mg/kg, route oral. The note with it: in vivo.
A short description of data set [3]: Plasma clearance in rat at 1.3 mg/kg, po. The format is ADME, organism-based. Also noted: dose 1.3 mg/kg, route oral.
A short description of data set [4]: AUC (0 to t) in rat at 1.3 mg/kg, po. Particulars: plasma. The format is ADME, organism-based. More on the design: dose 1.3 mg/kg, route oral.
Data set [5] in a line: Cmax in rat at 1.3 mg/kg, po. The format is ADME, organism-based. Also noted: dose 1.3 mg/kg, route oral. The note with it: in vivo.
Data set [6] is described as follows: Oral bioavailability in rat at 1.3 mg/kg. The format is ADME, organism-based. Particulars: in vivo.
Data set [7] is described as follows: Volume of distribution at steady state in rat at 1 mg/kg, iv or 2.2 mg/kg, po. Particulars: in vivo, read-out: Vdss. The format is ADME, organism-based.
A short description of data set [8]: AUC (0 to t) in monkey at 1.6 mg/kg, po. The format is ADME, organism-based, Macaca mulatta. More on the design: dose 1.6 mg/kg, route oral. The note with it: rhesus monkey, plasma.
Data set [9] is described as follows: Plasma clearance in monkey at 1.6 mg/kg, po. The format is ADME, organism-based, Macaca mulatta. The note with it: rhesus monkey. More on the design: dose 1.6 mg/kg, route oral.
Data set [10] in a line: Oral bioavailability in monkey at 1.6 mg/kg, po. The format is ADME, organism-based, Macaca mulatta. Particulars: rhesus monkey, in vivo.
Data set [11] can be described thus: Oral bioavailability in rat at 2.2 mg/kg. The format is ADME, organism-based. Particulars: in vivo.
The nature of data set [12]: AUC (0 to t) in rat at 2.2 mg/kg, po. The format is ADME, organism-based. More on the design: dose 2.2 mg/kg, route oral. The note with it: plasma.
Data set [13] in a line: Cmax in rat at 2.2 mg/kg, po. More on the design: dose 2.2 mg/kg, route oral. The note with it: in vivo. The format is ADME, organism-based.
The nature of data set [14]: Volume of distribution at steady state in monkey at 1 mg/kg, iv or 1.6 mg/kg, po. The format is ADME, organism-based, Macaca mulatta. The note with it: rhesus monkey, in vivo, read-out: Vdss.
Data set [15] in a line: Plasma clearance in rat at 2.2 mg/kg, po. Also noted: dose 2.2 mg/kg, route oral. The format is ADME, organism-based.
A short description of data set [16]: Half life in rat at 2.2 mg/kg, po. The format is ADME, organism-based. More on the design: dose 2.2 mg/kg, route oral. Particulars: in vivo.
The nature of data set [17]: Cmax in monkey at 1.6 mg/kg, po. The format is ADME, organism-based, Macaca mulatta. More on the design: dose 1.6 mg/kg, route oral. Particulars: rhesus monkey, in vivo.
Data set [18] is described as follows: Half life in monkey at 1.6 mg/kg, po. The format is ADME, organism-based, Macaca mulatta. The note with it: rhesus monkey, in vivo. More on the design: dose 1.6 mg/kg, route oral.
The nature of data set [19]: AUC (0 to t) in rat at 0.12 mg/kg, po. The format is ADME, organism-based. More on the design: dose 0.12 mg/kg, route oral. Particulars: plasma.
Data set [20] can be described thus: Plasma clearance in rat at 0.12 mg/kg, po. The format is ADME, organism-based. More on the design: dose 0.12 mg/kg, route oral.
The nature of data set [21]: Cmax in rat at 0.12 mg/kg, po. The format is ADME, organism-based. More on the design: dose 0.12 mg/kg, route oral. Particulars: in vivo.
Data set [22] in a line: Half life in rat at 0.12 mg/kg, po. Particulars: in vivo. Also noted: dose 0.12 mg/kg, route oral. The format is ADME, organism-based.
Data set [23] in a line: Oral bioavailability in rat at 0.12 mg/kg. The note with it: in vivo. The format is ADME, organism-based.
A short description of data set [24]: Volume of distribution at steady state in rat at 1.1 mg/kg, iv or 0.12 mg/kg, po. The format is ADME, organism-based. The note with it: in vivo, read-out: Vdss.
Data set [25] is described as follows: Oral bioavailability in rat at 2 mg/kg. The note with it: in vivo. The format is ADME, organism-based.
The nature of data set [26]: Plasma clearance in rat at 2.0 mg/kg, po. The format is ADME, organism-based. More on the design: dose 2 mg/kg, route oral.
Data set [27] in a line: Half life in rat at 2 mg/kg, po. The format is ADME, organism-based. More on the design: dose 2 mg/kg, route oral. Particulars: in vivo.
The nature of data set [28]: Half life in monkey at 1.3 mg/kg, po. The format is ADME, organism-based, Macaca mulatta. More on the design: dose 1.3 mg/kg, route oral. The note with it: rhesus monkey, in vivo.
A short description of data set [29]: Volume of distribution at steady state in monkey at 1 mg/kg, iv or 1.3 mg/kg, po. The format is ADME, organism-based, Macaca mulatta. Particulars: rhesus monkey, in vivo, read-out: Vdss.
A short description of data set [30]: Plasma clearance in monkey at 1.3 mg/kg, po. The format is ADME, organism-based, Macaca mulatta. Also noted: dose 1.3 mg/kg, route oral. Particulars: rhesus monkey.
A short description of data set [31]: Cmax in monkey at 1.3 mg/kg, po. The format is ADME, organism-based, Macaca mulatta. Also noted: dose 1.3 mg/kg, route oral. Particulars: rhesus monkey, in vivo.
Data set [32] is described as follows: Oral bioavailability in monkey at 1.3 mg/kg, po. The format is ADME, organism-based, Macaca mulatta. The note with it: rhesus monkey, in vivo.
A short description of data set [33]: Cmax in rat at 2 mg/kg, po. The format is ADME, organism-based. Particulars: in vivo. Also noted: dose 2 mg/kg, route oral.
Data set [34] is described as follows: AUC (0 to t) in monkey at 1.3 mg/kg, po. The format is ADME, organism-based, Macaca mulatta. Also noted: dose 1.3 mg/kg, route oral. The note with it: rhesus monkey, plasma.
Data set [35] can be described thus: Volume of distribution at steady state in rat at 1.1 mg/kg, iv or 2 mg/kg, po. The format is ADME, organism-based. Particulars: in vivo, read-out: Vdss.
Data set [36] can be described thus: AUC (0 to t) in rat at 2 mg/kg, po. The format is ADME, organism-based. Also noted: dose 2 mg/kg, route oral. Particulars: plasma.

Turning to `CCN1C[C@@H](N(Cc2cc(F)ccc2Cl)c2ccc(C#N)c(Cl)c2)CC1=O`, in [1], the Vd was determined as 15 L/kg. Further, the half-life – broadly, the time needed for the level to fall by half in the phase considered – in data set [2] is 2 h. In addition, the CL/F (as a rule, the apparent clearance, not corrected for the fraction that reaches the circulation) in data set [3] worked out at 75 mL/min/kg. Moreover, the AUC(0-t) (commonly exposure summed from dosing to a finite time, without extrapolation to infinity) in data set [4] was 290 ng·h/mL. Besides, in data set [5], the highest level (Cmax) was 97 ng/mL. Also, the bioavailability (as a rule, dose-corrected exposure relative to a reference, in per cent) in data set [6] was found to be 100%.

With `CN1C[C@@H](N(Cc2cccc(F)c2F)c2ccc(C#N)c(Cl)c2)CC1=O`, the Vd amounted to 3.4 L/kg in data set [7] and 1.7 L/kg in data set [14]. Further, the AUC(0-t) in data set [8] is 270 ng·h/mL; in data set [12], 2300 ng·h/mL. For the same compound, the CL/F in [9] turned out to be 110 mL/min/kg; in [15] it was 16 mL/min/kg. Besides, the bioavailability stood at 15% in [10] and 100% in data set [11]. Moreover, the Cmax (usually the highest concentration seen after dosing) in [13] was determined as 660 ng/mL; in data set [17], 92 ng/mL. The half-life in data set [16] was 6.2 h; in [18], 1.4 h.

In [19], `CC(C)N1C[C@@H](N(Cc2ccccc2Cl)c2ccc(C#N)c(Cl)c2)CC1=O` had an AUC(0-t) of 30 ng·h/mL. The compound also registered a CL/F in data set [20] of 40 mL/min/kg. Further, in data set [21], the highest level (Cmax) was 10 ng/mL. Further, in data set [22], the half-life is 5.8 h. In data set [23], this compound came in with a bioavailability of 100%. In data set [24], the Vd is 42 L/kg.

With `CCN1C[C@@H](N(Cc2cc(Cl)ccc2Cl)c2ccc(C#N)c(Cl)c2)CC1=O`, the bioavailability amounted to 100% in [25] and 4.9% in [32]. The apparent clearance CL/F amounted to 230 mL/min/kg in [26] and 480 mL/min/kg in data set [30]. Also, the values for the half-life in data set [27] and in data set [28] were 1.8 h and 1.5 h, respectively. Moreover, the Vd came out at 2.8 L/kg in [29] and 35 L/kg in data set [35]. Further, the Cmax in data set [31] was 15 ng/mL; in data set [33], 84 ng/mL. The AUC(0-t) in [34] amounted to 32 ng·h/mL; in data set [36], 150 ng·h/mL.
